Like-named read-outs stand apart in the source and are kept apart here. Marks after values point to notes of the source that are not given here.
Legend:
[1] = Absorption kinetics after intragastric administration; assay type: in vivo; conditions: both sexes, Sprague-Dawley (SD), rat, blood; SD rats, oral 200 mg/kg
Procedure: Ten SD rats weighing 150-180 g were randomly divided into two groups, each comprising five, with males and females combined. After intragastric administration of 200 mg/kg of saline solution containing NsTyr and NsTyr-2K, the average blood concentration-time curve thereof was respectively shown in FIG. 2.

[2] = Equilibrium solubility, shake-flask method; assay type: physicochemical
Procedure: (§1) The shake-flask method was used to test the equilibrium solubility of NsTyr, NsTyr-2K, NsTyr-2Na in water at 37° C. […] The apparent lipid-water distribution coefficient log p of NsTyr-2K, NsTyr-2Na was respectively 1.512 and 1.477. Under different pHs, see Table 1 for the equilibrium solubility test data of NsTyr-2K, NsTyr-2Na; and see Table 2 for the apparent lipid-water distribution coefficient of NsTyr-2K and NsTyr-2Na.

[3] = tested on: APP/PS1/TAU transgenic mice; assay: Open-field test; assay type: in vivo
Excerpt: (§2) Materials for open-field test: a spontaneous activity watch box (80×80×30), on top of which is furnished with a fluorescent lamp as a lighting system, and on the center of whose roof is a CCD camera connected to the computer; and an ethological computer image analysis system (SHANGHAI MOBILEDATUM TECH INFORMATION CO. LTD).
(§3) Laboratory animals: C57BL/6I (from Jackson Lab) (APP/PS1/TAU transgenic mice) in C57BL/6J (TAU transgenic mice). All APP/PS1/TAU transgenic mice and TAU transgenic mice belong to the mouse disease model as for Alzheimer's disease.
(§4) [1] Priscila Cagni, Mrilia Barros. Cannabinoid type I receptor ligands WIN 55,212-2 and AM251 alter anxiety-like behaviors of marmoset monkeys in an open-field test. Behavioural Brain Research 2013; 240:91-94.
(§5) Principles: Open-field test is useful for evaluation of mouse anxiety and behavior probing the outside world. By nature mice are capable of both exploring the unknown territory and protecting themselves from damage due to external potential risks. Open-field test, therefore, can test such mouse capabilities by recording their duration of stay at the marginal area and the central area (where anxiety occurs) in an open field. Meanwhile, the test as such can also measure mouse movement capabilities such as speed.

TAU transgenic mice [4] = assay: Open-field test; assay type: in vivo; conditions: medium-dose (30 mg/kg) and high-dose (45 mg/kg)
Excerpt: as §2, §3, §4, §5

[5] = tested on: APP/PS1 TAU transgenic mouse; assay: Rota rod test; assay type: in vivo, mice; conditions: high-dose
Excerpt: Materials for rota rod test: rotary rod type fatigue tester YLS-4C (SHANGHAI MOBILEDATUM TECH INFORMATION CO. LTD).
as §3
Principles: Rota rod is useful for studying the effects of drugs upon movement coordination and fatigue resistance.

[6] = Stability assessment (influencing factors, acceleration and long-term tests, Chinese Pharmacopoeia 2010); assay type: physicochemical; conditions: high temperature, high humidity, strong light
Procedure: Considering that prototype drug stearoyl amino acid tend to absorb moisture, cake and become yellowish during long-term storage, the stearoyl amino acid is now converted into a form of active salt thereof. And the stability of NsTyr-2K and NsTyr-2Na was tested as required for bulk pharmaceutical chemicals according to the People's Republic of China Pharmacopoeia 2010.

[7] = tested on: APP/PS1/TAU transgenic mice; assay: High plus maze test; assay type: in vivo; conditions: different doses
Excerpt: (§6) Materials for high plus maze: consisting of two opening arms opposite to each other and two closing arms opposite to each other, a central platform connecting the aforesaid arms, and a short, 1-cm-high damper along the edges of the opening arms (to prevent animals from slipping off the maze in the process of exploring), with the floors of the four arms and the central platform being black; the floor of the maze adjusted to be 50 cm away from the laboratory ground; and an ethological computer image analysis system (SHANGHAI MOBILEDATUM TECH INFORMATION CO. LTD).
as §3
(§7) Principles: With a couple of opening arms and another couple of closing arms, the high plus maze is useful for assessment of animal anxiety by taking advantage of animal tendency to explore a new extraneous environment as well as their fear of high and open extending arms, which form a behavioral conflict. Rodents tend to move within closing arms due to their fondness of dark, but will, out of curiosity, go into opening arms and move around there. When stimulated by a novel environment, they will engender an impulse to explore and a fear at the same time.

TAU transgenic mice [8] = assay: High plus maze test; assay type: in vivo
Excerpt: as §6, §3, §7

[9] = Apparent lipid-water distribution coefficient; assay type: physicochemical
Procedure: as §1

[10] = tested on: APP/PS1/TAU transgenic mice; assay: Morris water maze test (place navigation and spatial probe); assay type: in vivo
Excerpt: (§8) Materials for water maze test: a constant-temperature swimming pool, a platform for mice, and an ethological computer image analysis system (SHANGHAI MOBILEDATUM TECH INFORMATION CO. LTD).
as §3
(§9) Principles: Morris water maze test programs comprise two parts: place navigation test and spatial probe test. The former lasted a few days; each day mice were respectively put into water from four entries several times, and the time they spent seeking the platform hidden underwater (escape latency) was recorded. When place navigation test ended, the platform was removed. The latter recorded the mouse swimming trajectory after the mice were put into water from any chosen entry, and assessed their previous memory of the platform.

TAU transgenic mice [11] = assay: as above; assay type: in vivo
Excerpt: as §8, §3, §9

obese mouse model [12] = assay: H&E staining of fat and liver tissue of obese mice; assay type: in vivo, C57BL/6 mice
Procedure: 2. Method: Epididymal fat and liver were fixed in 10% neutral formaldehyde solution for 48 h. After paraffin embedding they were made into […] of slices, and stained with hematoxylin-eosin (H&E staining). Light microscope was used to observe the size of fat cells, the structure of liver cells and adipose accumulation.

obese mouse model [13] = assay: Administration test in obese mouse model (weight, food intake); assay type: in vivo, C57BL/6 mice
Procedure: 2. Method: 60 C57BL/6 mice (aged 3 weeks, male, with a weight of 8.3 g each) were adaptively fed with 12% kcal normal diet for one week, and randomly divided into 6 groups, each consisting of 10 mice. One group (ND) continued to be fed with normal diet, the rest five groups (HFD I˜V) were fed with 45% kcal high-fat diet.
In the whole test process the mice kept raised in the following environment: temperature: 23±3° C.; humidity: 50±5%; bright and dim alternating cycle: 12 h/12 h; freely available to diet and drinking water in the whole process.
2. Method: ND and HFD I were respectively taken as normal and high-fat diet blank control groups, and were treated with 0.5% sodium carboxymethyl cellulose solution (5 ml/kg/day); HFD II˜IV were taken as groups of recipients, and were treated with NST-2K (20, 60, 100 mg/kg/day); HFD V was taken as a positive control group, and treated with Orlistat (100 mg/kg/day). All the above drugs dissolved in aqueous solution of 0.5% sodium carboxymethyl cellulose and were administered. The administration remained four weeks. In each week average weight and food intake were kept in record until the phase of administration ended.

obese mouse model [14] = assay: Collection and observation of fat and liver tissues of obese mice; assay type: in vivo, C57BL/6 mice; conditions: 100 mg/kg/day
Excerpt: 2. Method: After administration test in Embodiment 8, the mice were denied food overnight. Their abdominal cavity was opened to observe abdominal fat content in each group of the mice. Epididymal fat, perirenal fat and liver were separated and weighed.

[15] = tested on: gerbil model with global ischemia reperfusion injury; assay: Neurobehavioral scores of acute cerebral ischemia reperfusion model; assay type: in vivo; conditions: positive control group, dose not given; ischemic model group 3.1+/−0.32
Excerpt: Taking N-stearoyl amino acid potassium NsTyr-2K as an example, a gerbil model with global ischemia reperfusion injury was used to assess the protective role of NsTyr-2K against neurobehavioral disorder caused by cerebral ischemia-reperfusion injury by examining the changing behavioral indexes such as spatial, learning and cognitive functions in the perspective of overall animals during passive dark avoidance test and Morris water maze test.

[16] = day 5, medium-dose and high-dose group, *P<0.05

CCCCCCCCCCCCCCCCCC(=O)N[C@@H](Cc1ccc(O)cc1)C(=O)O [NsTyr, N-stearoyl tyrosine]
AUC(0-inf) [1]: 140 ng·h/mL
AUC(0-t) [1]: 130 ng·h/mL
Cmax [1]: 110 ng/mL
MRT last [1]: 1.38 h
Tmax [1]: 0.75 h
half-life [1]: 1.49 h
solubility thermodynamic ([2]; thermodynamic from solid, water, 37° C., read-out: equilibrium solubility in water): < 1000 µg/mL

CCCCCCCCCCCCCCCCCC(=O)N[C@@H](Cc1ccc(O)cc1)C(=O)[O-].CCCCCCCCCCCCCCCCCC(=O)N[C@@H](Cc1ccc(O)cc1)C(=O)[O-].[Na+].[Na+] [NsTyr-2Na]
duration of stay at the central activity area ([3]; 15, 30, 45 mg/kg): could not be changed
mouse journey ([3]; high-dose 45 mg/kg): could increase mouse journey
duration of stay in the central area (TAU transgenic mice [4]): reduce their duration of stay in the central area
movement ability (journey) (TAU transgenic mice [4]): could enhance transgenic mouse movement ability
movement coordination [5]: could obviously improve the phenomenon
stability [6]: stable properties
low anxiety state [7]: did not change
low-anxiety state (TAU transgenic mice [8]; different doses): the low-anxiety state was changed
low-anxiety state (TAU transgenic mice [8]; high-dose, compared with the animal model group): significant difference
Apparent lipid-water distribution coefficient LogP [9]: 1.477
Apparent lipid-water distribution coefficient Ko/w ([9]; buffer pH 2.0): 49.913
Apparent lipid-water distribution coefficient LogP ([9]; buffer pH 2.0): 1.698
Apparent lipid-water distribution coefficient Ko/w ([9]; buffer pH 3.0): 28.980
Apparent lipid-water distribution coefficient LogP ([9]; buffer pH 3.0): 1.462
Apparent lipid-water distribution coefficient Ko/w ([9]; buffer pH 4.0): 15.224
Apparent lipid-water distribution coefficient LogP ([9]; buffer pH 4.0): 1.183
Apparent lipid-water distribution coefficient Ko/w ([9]; buffer pH 5.0): 18.710
Apparent lipid-water distribution coefficient LogP ([9]; buffer pH 5.0): 1.272
Apparent lipid-water distribution coefficient Ko/w ([9]; buffer pH 6.0): 19.963
Apparent lipid-water distribution coefficient LogP ([9]; buffer pH 6.0): 1.300
Apparent lipid-water distribution coefficient Ko/w ([9]; buffer pH 7.0): 31.436
Apparent lipid-water distribution coefficient LogP ([9]; buffer pH 7.0): 1.497
Apparent lipid-water distribution coefficient Ko/w ([9]; buffer pH 7.4): 29.286
Apparent lipid-water distribution coefficient LogP ([9]; buffer pH 7.4): 1.467
Apparent lipid-water distribution coefficient Ko/w ([9]; buffer pH 8.0): 28.704
Apparent lipid-water distribution coefficient LogP ([9]; buffer pH 8.0): 1.458
Apparent lipid-water distribution coefficient Ko/w ([9]; buffer pH 9.0): 21.872
Apparent lipid-water distribution coefficient LogP ([9]; buffer pH 9.0): 1.340
latency in place navigation test ([10]; day 4, dosing group vs model group): no significant difference
latency in place navigation test [10, 16]: significant difference
swimming time percentage in the third quadrant (probe test) ([10]; day 5, platform removed, high-dose group): statistical significance
spatial probing (swimming trajectory, FIG. 11) ([10]; spatial probe test): only the high-dose group could enhance their spatial probing
latency in place navigation test (TAU transgenic mice [11]; day 4, high-dose group vs model group): significant difference
latency in place navigation test (TAU transgenic mice [11]; [16]): significant difference
swimming time percentage in the third quadrant (probe test) (TAU transgenic mice [11]; day 5, platform removed, medium-dose and high-dose group): statistical significance
spatial probing (swimming trajectory, FIG. 11) (TAU transgenic mice [11]; spatial probe test): both the medium- and high-dose groups could improve their spatial probing
Equilibrium solubility in buffer solution ([2]; pH 2.0): 66.938 µg/mL
Equilibrium solubility in buffer solution ([2]; pH 3.0): 66.334 µg/mL
Equilibrium solubility in buffer solution ([2]; pH 4.0): 195.371 µg/mL
Equilibrium solubility in buffer solution ([2]; pH 5.0): 232.102 µg/mL
Equilibrium solubility in buffer solution ([2]; pH 6.0): 274.629 µg/mL
Equilibrium solubility in buffer solution ([2]; pH 7.0): 318.016 µg/mL
Equilibrium solubility in buffer solution ([2]; pH 7.4): 374.484 µg/mL
Equilibrium solubility in buffer solution ([2]; pH 8.0): 463.902 µg/mL
Equilibrium solubility in buffer solution ([2]; pH 9.0): 512.644 µg/mL

CCCCCCCCCCC[C@@H](C[C@@H]1OC(=O)[C@H]1CCCCCC)OC(=O)[C@H](CC(C)C)NC=O [Orlistat, reference compound]
size of epididymal fat cells (obese mouse model [12]; HFD III, HFD IV (NST-2K 60, 100 mg/kg/day) and HFD V (Orlistat 100 mg/kg/day) vs HFD I): evidently smaller fat cells than HFD I
fat accumulation in liver tissues (obese mouse model [12]; as the administration dose increased, vs HFD I): the accumulation began to ease
obese mouse weight (obese mouse model [13]; 100 mg/kg/day, four weeks): can inhibit weight gain in obese mice
appetite (average daily food intake) (obese mouse model [13]; 4-week administration, high-fat diet groups): neither NST-2K nor Orlistat suppressed appetite
perirenal fat percentage quality (obese mouse model [14]; HFD I blank 1.63 ± 0.10): 1.32 ± 0.06 g/100 g weight
Epididymal fat percentage quality (obese mouse model [14]; HFD I blank 2.99 ± 0.08): 2.66 ± 0.07 g/100 g weight
Liver percentage quality (obese mouse model [14]; HFD I blank 3.51 ± 0.07): 3.48 ± 0.06***^ g/100 g weight

COCCOC(=O)C1=C(C)NC(C)=C(C(=O)OC(C)C)C1c1cccc([N+](=O)[O-])c1 (stereo not drawn) [nimotop, reference compound]
neurobehavioral score [15]: 1.12+/−0.31
